Measured values as given in patent publication US11339144B2 (Navitor Pharmaceuticals, Inc., priority 2017, dated 2022).

What was measured:
Rheb = Rheb (Homo sapiens (Human), UniProt Q15382); assay: Affinity Selection Mass Spectrometry (ASMS); assay type: binding; settings: affinity (R3/R0) in Affinity Selection Mass Spectrometry assay
How it was run: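 Affinity selection used 2 μM compound with 60 μM Rheb and 180 μM GDP for 30 min at room temperature. After 10 kDa ultrafiltration washes, protein was denatured in MeCN and bound compound quantified by C18 UPLC with Q-TOF MS, against a no-protein control.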

[1] = biological target: HA-GST-Rheb (GTP-γ-S loaded) activating mTORC1 (Homo sapiens (Human), UniProt Q15382); assay: Rheb-dependent in vitro kinase assay (Rheb-IVK; LanthaScreen or Western readout); assay type: biochemical; settings: Rheb-dependent in vitro kinase assay; read-out: IVK IC50
Sequence of HA-GST-Rheb (GTP-γ-S loaded) activating mTORC1 (Q15382 1-181): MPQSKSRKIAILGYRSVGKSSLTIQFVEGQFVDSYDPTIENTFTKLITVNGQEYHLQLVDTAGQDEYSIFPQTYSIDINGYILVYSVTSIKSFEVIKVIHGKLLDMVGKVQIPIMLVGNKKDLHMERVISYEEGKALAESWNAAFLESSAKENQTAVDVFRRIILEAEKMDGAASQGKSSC

Sequence of Rheb (Q15382 1-169 limits assumed): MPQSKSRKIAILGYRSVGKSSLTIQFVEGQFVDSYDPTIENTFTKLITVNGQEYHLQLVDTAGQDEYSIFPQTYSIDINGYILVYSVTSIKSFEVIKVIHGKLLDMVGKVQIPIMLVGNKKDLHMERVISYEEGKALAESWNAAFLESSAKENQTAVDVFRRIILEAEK

Row | IC50 [1] [µM] | SMILES | ASMS (R3/R0) (Rheb)
1 | < 10 | OCc1cc2c(Sc3cccc(OC(F)(F)F)c3)cc(Cl)cc2[nH]1 [I-122, (6-chloro-4-(3-(trifluoromethoxy)phenylthio)-1H-indol-2-yl)methanol] | B (an affinity (R3/R0) between 100% and 20%)
2 | < 10 | OCc1cc2c(Sc3ccc(OC(F)(F)F)cc3)cc(Cl)cc2[nH]1 [I-123, (6-chloro-4-(4-(trifluoromethoxy)phenylthio)-1H-indol-2-yl)methanol] | B (an affinity (R3/R0) between 100% and 20%)
3 | < 10 | O=C(O)c1cc2c(Oc3ccc(C4CCCCC4)cc3)cc(Cl)cc2[nH]1 [I-125, 6-chloro-4-(4-cyclohexylphenoxy)-1H-indole-2-carboxylic acid] | B (an affinity (R3/R0) between 100% and 20%)
4 | 10 to 100 | O=C(O)c1cc2c(Sc3cccc(OC(F)(F)F)c3)cc(Cl)cc2[nH]1 [I-126, 6-chloro-4-(3-(trifluoromethoxy)phenylthio)-1H-indole-2-carboxylic acid] | B (an affinity (R3/R0) between 100% and 20%)
5 | < 10 | OCc1cc2c(Oc3ccc(C4CCCCC4)cc3)cc(Cl)cc2[nH]1 [I-127, (6-chloro-4-(4-cyclohexylphenoxy)-1H-indol-2-yl)methanol] | B (an affinity (R3/R0) between 100% and 20%)
6 | < 10 | O=C(Nc1ccc(-c2cnco2)cc1)c1cc2c(Sc3ccc(Cl)cc3)cc(Cl)cc2[nH]1 [I-128, 6-chloro-4-(4-chlorophenylthio)-N-(4-(oxazol-5-yl)phenyl)-1H-indole-2-carboxamide] | A (an affinity (R3/R0)>100%)
7 | 10 to 100 | O=C(O)c1cc2c(Sc3ccc(OC(F)(F)F)cc3)cc(Cl)cc2[nH]1 [I-129, 6-chloro-4-(4-(trifluoromethoxy)phenylthio)-1H-indole-2-carboxylic acid] | B (an affinity (R3/R0) between 100% and 20%)
8 | > 100 | O=C(NCCn1ccc2ccccc21)c1cc2c(Sc3ccc(Cl)cc3)cc(Cl)cc2[nH]1 [I-131] | B (an affinity (R3/R0) between 100% and 20%)
9 | > 100 | NC(=O)C1CCCN(C(=O)c2cc3c(Sc4ccc(Cl)cc4)cc(Cl)cc3[nH]2)C1 (stereo not drawn) [I-132] | B (an affinity (R3/R0) between 100% and 20%)
10 | < 10 | OCc1cc2c(Br)cc(Sc3ccc(Cl)c(Cl)c3)cc2[nH]1 [I-133, (4-bromo-6-(3,4-dichlorophenylthio)-1H-indol-2-yl)methanol] | B (an affinity (R3/R0) between 100% and 20%)
11 | 10 to 100 | OCc1cc2c(Sc3ccc4ccccc4c3)cc(Cl)cc2[nH]1 [I-134, (6-chloro-4-(naphthalen-2-ylthio)-1H-indol-2-yl)methanol] | B (an affinity (R3/R0) between 100% and 20%)
12 | > 100 | COc1ccc(Sc2cc(Cl)cc3[nH]c(CO)cc23)cc1OC [I-135] | B (an affinity (R3/R0) between 100% and 20%)
13 | > 100 | O=C(NCC1CCN(Cc2ccccc2)C1)c1cc2c(Sc3ccc(Cl)cc3)cc(Cl)cc2[nH]1 (stereo not drawn) [I-136] | A (an affinity (R3/R0)>100%)
14 | > 100 | CS(=O)(=O)CCNC(=O)c1cc2c(Sc3ccc(Cl)cc3)cc(Cl)cc2[nH]1 [I-137] | A (an affinity (R3/R0)>100%)
15 | < 10 | O=C(O)c1cc2c(Br)cc(Sc3ccc(Cl)c(Cl)c3)cc2[nH]1 [I-139, 4-bromo-6-(3,4-dichlorophenylthio)-1H-indole-2-carboxylic acid] | B (an affinity (R3/R0) between 100% and 20%)
16 | > 100 | O=C(NCC1CCOCC1)c1cc2c(Sc3ccc(Cl)cc3)cc(Cl)cc2[nH]1 [I-143] | B (an affinity (R3/R0) between 100% and 20%)
17 | > 100 | COc1cccc(CCNC(=O)c2cc3c(Sc4ccc(Cl)cc4)cc(Cl)cc3[nH]2)c1 [I-144] | B (an affinity (R3/R0) between 100% and 20%)
18 | 10 to 100 | OCc1cc2c(Br)cc(SCc3ccc(Cl)cc3)cc2[nH]1 [I-145, (4-bromo-6-(4-chlorobenzylthio)-1H-indol-2-yl)methanol] | B (an affinity (R3/R0) between 100% and 20%)
19 | > 100 | O=C1CCC(CNC(=O)c2cc3c(Sc4ccc(Cl)cc4)cc(Cl)cc3[nH]2)N1 (stereo not drawn) [I-147] | A (an affinity (R3/R0)>100%)
20 | 10 to 100 | O=C(NCCN1CCCC1)c1cc2c(Sc3ccc(Cl)cc3)cc(Cl)cc2[nH]1 [I-148, 6-chloro-4-(4-chlorophenylthio)-N-(2-(pyrrolidin-1-yl)ethyl)-1H-indole-2-carboxamide] | B (an affinity (R3/R0) between 100% and 20%)

Row | IC50 [1] [µM] | SMILES | ASMS (R3/R0) (Rheb)
21 | 10 to 100 | O=C(NCc1ccccn1)c1cc2c(Sc3ccc(Cl)cc3)cc(Cl)cc2[nH]1 [I-149, 6-chloro-4-(4-chlorophenylthio)-N-(pyridin-2-ylmethyl)-1H-indole-2-carboxamide] | B (an affinity (R3/R0) between 100% and 20%)
22 | > 100 | CC(=O)c1cc2c(Oc3ccccc3)cc(Cl)cc2[nH]1 [I-150] | C (an affinity (R3/R0)<20%)
23 | > 100 | CC(C)(C)OC(=O)c1ccc(Cn2c(CO)cc3c(Br)cc(Oc4ccccc4)cc32)cc1 [I-151] | C (an affinity (R3/R0)<20%)
24 | 10 to 100 | OCc1cc2c(Sc3ccc(F)c(F)c3)cc(Cl)cc2[nH]1 [I-152, (6-chloro-4-(3,4-difluorophenylthio)-1H-indol-2-yl)methanol] | B (an affinity (R3/R0) between 100% and 20%)
25 | 10 to 100 | OCc1cc2c(Sc3ccc(F)cc3)cc(Cl)cc2[nH]1 [I-153, (6-chloro-4-(4-fluorophenylthio)-1H-indol-2-yl)methanol] | B (an affinity (R3/R0) between 100% and 20%)
26 | 10 to 100 | O=C(O)c1cc2c(Sc3ccc(F)c(F)c3)cc(Cl)cc2[nH]1 [I-155, 6-chloro-4-(3,4-difluorophenylthio)-1H-indole-2-carboxylic acid] | B (an affinity (R3/R0) between 100% and 20%)
27 | 10 to 100 | O=C(O)c1cc2c(Sc3ccc(F)cc3)cc(Cl)cc2[nH]1 [I-156, 6-chloro-4-(4-fluorophenylthio)-1H-indole-2-carboxylic acid] | B (an affinity (R3/R0) between 100% and 20%)
28 | < 10 | O=C(O)c1cc2c(Sc3ccc(Cl)cc3Cl)cc(Cl)cc2[nH]1 [I-157, 6-chloro-4-(2,4-dichlorophenylthio)-1H-indole-2-carboxylic acid] | B (an affinity (R3/R0) between 100% and 20%)
29 | 10 to 100 | O=C(O)Cn1ccc2c(Oc3cc(Cl)ccc3Cl)cc(Cl)cc21 [I-158, 2-(6-Chloro-4-(2,5-dichlorophenoxy)-1H-indol-1-yl)acetic acid] | B (an affinity (R3/R0) between 100% and 20%)
30 | > 100 | N#Cc1ccc(Cn2ccc3c(Sc4ccc(Cl)cc4Cl)cccc32)cc1 [I-160] | C (an affinity (R3/R0)<20%)
31 | < 10 | Clc1ccc(Sc2cccc3c2ccn3Cc2ccc(-c3nnn[nH]3)cc2)c(Cl)c1 [I-161, 1-(4-(1H-tetrazol-5-yl)benzyl)-4-(2,4-dichlorophenylthio)-1H-indole] | A (an affinity (R3/R0)>100%)
32 | 100 to 300 | O=C(O)Cn1c(C(=O)O)cc2c(Oc3cc(Cl)ccc3Cl)cc(Cl)cc21 [I-162, 1-(Carboxymethyl)-6-chloro-4-(2,5-dichlorophenoxy)-1H-indole-2-carboxylic acid] | B (an affinity (R3/R0) between 100% and 20%)
33 | > 100 | CC(C)(C)OC(=O)c1ccc(Cn2ccc3c(Br)cc(Oc4ccccc4)cc32)cc1 [I-163] | C (an affinity (R3/R0)<20%)
34 | 10 to 100 | O=C(O)c1ccc(Cn2ccc3c(Br)cc(Oc4ccccc4)cc32)cc1 [I-164, 4-((4-bromo-6-phenoxy-1H-indol-1-yl)methyl)benzoic acid] | B (an affinity (R3/R0) between 100% and 20%)
35 | 10 to 100 | O=C(O)c1ccc(Cn2c(C(=O)O)cc3c(Br)cc(Oc4ccccc4)cc32)cc1 [I-165, 4-bromo-1-(4-carboxybenzyl)-6-phenoxy-1H-indole-2-carboxylic acid] | B (an affinity (R3/R0) between 100% and 20%)
36 | > 100 | OCc1ccc(Cn2c(CO)cc3c(Br)cc(Oc4ccccc4)cc32)cc1 [I-166] | B (an affinity (R3/R0) between 100% and 20%)
37 | > 100 | NCCn1c(CO)cc2c(Oc3ccccc3)cc(Cl)cc21 [I-168] | C (an affinity (R3/R0)<20%)
38 | 10 to 100 | NC(=O)c1cc2c(Oc3ccccc3)cc(Cl)cc2[nH]1 [I-169, 6-chloro-4-phenoxy-1H-indole-2-carboxamide] | B (an affinity (R3/R0) between 100% and 20%)
39 | 10 to 100 | NCc1cc2c(Oc3ccccc3)cc(Cl)cc2[nH]1 [I-170, (6-chloro-4-phenoxy-1H-indol-2-yl)methanamine] | B (an affinity (R3/R0) between 100% and 20%)
40 | 10 to 100 | OCc1cc2c(Oc3cc(Cl)ccc3Cl)cc(Cl)cc2[nH]1 [I-171, (6-Chloro-4-(2,5-dichlorophenoxy)-1H-indol-2-yl)methanol] | B (an affinity (R3/R0) between 100% and 20%)

Row | SMILES | IC50 [1] [µM] | ASMS (R3/R0) (Rheb)
41 | C[Si](C)(C)CC(O)c1cc2c(Oc3ccccc3)cc(Cl)cc2[nH]1 (stereo not drawn) [I-159, 1-(6-chloro-4-phenoxy-1H-indol-2-yl)-2-(trimethylsilyl)ethanol] | 10 to 100 | C (an affinity (R3/R0)<20%)
42 | CC(C)(C)OC(=O)c1ccc(Cn2c(C(=O)O)cc3c(Br)cc(Oc4ccccc4)cc32)cc1 [I-167, 4-bromo-1-(4-(tert-butoxycarbonyl)benzyl)-6-phenoxy-1H-indole-2-carboxylic acid] | < 10 | B (an affinity (R3/R0) between 100% and 20%)
